Source: patent EP3925956B1, “1H-INDAZOLE-3-CARBOXAMIDE DERIVATIVES AND RELATED COMPOUNDS AS FACTOR D INHIBITORS FOR TREATING DISEASES CHARACTERIZED BY ABERRANT COMPLEMENT SYSTEM ACTIVITY, SUCH AS E.G. IMMUNOLOGICAL DISORDERS” (BioCryst Pharmaceuticals, Inc., priority 2016, dated 2017)

molecular target: Factor D (Homo sapiens, UniProt P00746); assay: Factor D esterolytic assay
Sequence (P00746 26-253): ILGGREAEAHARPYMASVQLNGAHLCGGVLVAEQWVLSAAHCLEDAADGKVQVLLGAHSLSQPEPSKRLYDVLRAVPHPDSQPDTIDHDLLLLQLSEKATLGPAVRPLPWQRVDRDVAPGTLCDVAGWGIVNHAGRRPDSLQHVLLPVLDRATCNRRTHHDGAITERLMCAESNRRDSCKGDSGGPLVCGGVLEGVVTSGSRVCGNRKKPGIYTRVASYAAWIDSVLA

Structure (SMILES)	IC50
C[C@H](CO)N(CC(=O)NCc1cccc(Cl)c1F)C(=O)Cn1nc(C(N)=O)c2cc(NC(=O)OC(C)(C)C)ccc21 [345e, (R)-tert-butyl (3-carbamoyl-1-(2-((2-((3-chloro-2-fluorobenzyl)amino)-2-oxoethyl)(1-hydroxypropan-2-yl)amino)-2-oxoethyl)-1H-indazol-5-yl)carbamate]	< 1 µM
N#Cc1cn(CC(=O)N(CC(=O)NCc2cccc(Cl)c2F)C2CC2)c2ccc(C(=O)NCc3ccccc3)cc12 [200i, N-benzyl-1-(2-((2-((3-chloro-2-fluorobenzyl)amino)-2-oxoethyl)(cyclopropyl)amino)-2-oxoethyl)-3-cyano-1H-indole-5-carboxamide]	1 to 10 µM
NC(=O)c1nn(CC(=O)N(CC(=O)NCc2cccc(Cl)c2F)C2CC2)c2ncc(N)cc12 [326b, 5-amino-1-(2-((2-((3-chloro-2-fluorobenzyl)amino)-2-oxoethyl)(cyclopropyl)amino)-2-oxoethyl)-1H-pyrazolo[3,4-b]pyridine-3-carboxamide]	1 to 10 µM
NC(=O)c1nn(CC(=O)N(CC(=O)NCc2cccc(Cl)c2F)[C@H]2C[C@H](N)C2)c2ccc(N)cc12 [351b, 5-amino-1-(2-(((trans)-3-aminocyclobutyl)(2-((3-chloro-2-fluorobenzyl)amino)-2-oxoethyl)amino)-2-oxoethyl)-1H-indazole-3-carboxamide]	< 1 µM
CO[C@H]1C[C@H](N(CC(=O)NCc2cccc(Cl)c2F)C(=O)Cn2nc(C(N)=O)c3ccccc32)C1 [170b, 1-(2-((2-((3-chloro-2-fluorobenzyl)amino)-2-oxoethyl)((trans)-3-methoxycyclobutyl)amino)-2-oxoethyl)-1H-indazole-3-carboxamide]	< 1 µM
NC(=O)c1nn(CC(=O)N(CC(=O)NCc2cccc(Cl)c2F)C[C@H]2C[C@H](O)C2)c2ccccc12 [172b, 1-(2-((2-((3-chloro-2-fluorobenzyl)amino)-2-oxoethyl)(((trans)-3-hydroxycyclobutyl)methyl)amino)-2-oxoethyl)-1H-indazole-3-carboxamide]	< 1 µM
CC(O)c1nn(CC(=O)N(CC(=O)NCc2cccc(Cl)c2F)C2CC2)c2ccc(NC(=O)N3CCCC(F)(F)C3)cc12 (stereo not shown) [289a, N-(1-(2-((2-((3-chloro-2-fluorobenzyl)amino)-2-oxoethyl)(cyclopropyl)amino)-2-oxoethyl)-3-(1-hydroxyethyl)-1H-indazol-5-yl)-3,3-difluoropiperidine-1-carboxamide]	1 to 10 µM
NC(=O)c1nn(CC(=O)N(CC(=O)NCc2cccc(Cl)c2F)[C@H]2C[C@H](N)C2)c2ccc([N+](=O)[O-])cc12 [347b, 1-(2-(((trans)-3-aminocyclobutyl)(2-((3-chloro-2-fluorobenzyl)amino)-2-oxoethyl)amino)-2-oxoethyl)-5-nitro-1H-indazole-3-carboxamide]	< 1 µM
COC(=O)c1ccc2c(c1)c(C(C)=O)nn2CC(=O)N(CC(=O)NCc1cccc(Cl)c1F)C1CC1 [227a, methyl 3-acetyl-1-(2-((2-((3-chloro-2-fluorobenzyl)amino)-2-oxoethyl)(cyclopropyl)amino)-2-oxoethyl)-1H-indazole-5-carboxylate]	< 1 µM
CC(=O)c1nn(CC(=O)N(CC(=O)NCc2cccc(Cl)c2F)[C@H]2C[C@H](O)C2)c2ccccc12 [183a, 2-(3-acetyl-1H-indazol-1-yl)-N-(2-((3-chloro-2-fluorobenzyl)amino)-2-oxoethyl)-N-(trans-3-hydroxycyclobutyl)acetamide]	< 1 µM
CC(=O)c1cn(CC(=O)N(CC(=O)NCc2cccc(Cl)c2F)C(C)C)c2ccc(C#Cc3cccnc3)cc12 [131a, 2-(3-acetyl-5-(pyridin-3-ylethynyl)-1H-indol-1-yl)-N-(2-((3-chloro-2-fluorobenzyl)amino)-2-oxoethyl)-N-isopropylacetamide]	< 1 µM
NC(=O)c1nn(CC(=O)N(CC(=O)NCc2cccc(Cl)c2F)[C@H]2C[C@@H](CO)C2)c2ccccc12 [210b, 1-(2-((2-((3-chloro-2-fluorobenzyl)amino)-2-oxoethyl)((cis)-3-(hydroxymethyl)cyclobutyl)amino)-2-oxoethyl)-1H-indazole-3-carboxamide]	< 1 µM
C[C@@H](O)[C@H](NC(=O)Cn1nc(C(N)=O)c2ccccc21)C(=O)NCc1cccc(Cl)c1F [34d, 1-(2-(((2S,3R)-1-((3-chloro-2-fluorobenzyl)amino)-3-hydroxy-1-oxobutan-2-yl)amino)-2-oxoethyl)-1H-indazole-3-carboxamide]	> 10 µM
CC(C)(C)OC(=O)N[C@H]1C[C@H](CN(CC(=O)NCc2cccc(Cl)c2F)C(=O)Cn2nc(C(N)=O)c3ccccc32)C1 [161b, tert-butyl ((trans)-3-((2-(3-carbamoyl-1H-indazol-1-yl)-N-(2-((3-chloro-2-fluorobenzyl)amino)-2-oxoethyl)acetamido)methyl)cyclobutyl)carbamate]	1 to 10 µM
NC(=O)c1nn(CC(=O)N(CC(=O)NCc2cccc(Cl)c2F)C[C@H]2C[C@H](N)C2)c2ccccc12 [161c, 1-(2-((((trans)-3-aminocyclobutyl)methyl)(2-((3-chloro-2-fluorobenzyl)amino)-2-oxoethyl)amino)-2-oxoethyl)-1H-indazole-3-carboxamide]	< 1 µM
NC(=O)c1ncnc2c1ccn2CC(=O)N(CC(=O)Nc1cncc(Br)n1)C1CC1 [84a, 7-(2-((2-((6-bromopyrazin-2-yl)amino)-2-oxoethyl)(cyclopropyl)amino)-2-oxoethyl)-7H-pyrrolo[2,3-d]pyrimidine-4-carboxamide]	> 10 µM

Structure (SMILES)	IC50
NC(=O)c1nn(CC(=O)N(CC(=O)NCc2cccc(Cl)c2F)[C@H]2C[C@@H](N)C2)c2ccccc12 [153a, 1-(2-(((cis)-3-aminocyclobutyl)(2-((3-chloro-2-fluorobenzyl)amino)-2-oxoethyl)amino)-2-oxoethyl)-1H-indazole-3-carboxamide]	< 1 µM
Nc1ncnc2c1ccn2CC(=O)N(CC(=O)Nc1cccc(Br)n1)C1CC1 [56d, 2-(4-amino-7H-pyrrolo[2,3-d]pyrimidin-7-yl)-N-(2-((6-bromopyridin-2-yl)amino)-2-oxoethyl)-N-cyclopropylacetamide]	1 to 10 µM
CC(C)N(CC(=O)NCc1cccc(Cl)c1F)C(=O)Cn1cc(C(N)=O)c2c(N)ncnc21 [65a, 4-amino-7-(2-((2-((3-chloro-2-fluorobenzyl)amino)-2-oxoethyl)(isopropyl)amino)-2-oxoethyl)-7H-pyrrolo[2,3-d]pyrimidine-5-carboxamide]	1 to 10 µM
NC(=O)c1nn(CC(=O)N(CC(=O)NCc2cccc(Cl)c2F)[C@H]2C[C@H](N)C2)c2ccccc12 [169c, 1-(2-(((trans)-3-aminocyclobutyl)(2-((3-chloro-2-fluorobenzyl)amino)-2-oxoethyl)amino)-2-oxoethyl)-1H-indazole-3-carboxamide]	< 1 µM
NC(=O)c1nn(CC(=O)N(CC(=O)Nc2cncc(Br)n2)[C@H]2C[C@H](N)C2)c2ccccc12 [350c, 1-(2-(((trans)-3-aminocyclobutyl)(2-((6-bromopyrazin-2-yl)amino)-2-oxoethyl)amino)-2-oxoethyl)-1H-indazole-3-carboxamide]	< 1 µM
CC(=O)c1cn(CC(=O)N(CC(=O)NCc2cccc(Cl)c2F)[C@H]2C[C@H](O)C2)c2ccc(Nc3cncnc3)cc12 [114a, 2-(3-acetyl-5-(pyrimidin-5-ylamino)-1H-indol-1-yl)-N-(2-((3-chloro-2-fluorobenzyl)amino)-2-oxoethyl)-N-((trans)-3-hydroxycyclobutyl)acetamide]	< 1 µM
Nc1ncnc2c1ccn2CC(=O)N(CC(=O)NCc1cccc(Cl)c1F)C1CC1 [63a, 2-(4-amino-7H-pyrrolo[2,3-d]pyrimidin-7-yl)-N-(2-((3-chloro-2-fluorobenzyl)amino)-2-oxoethyl)-N-cyclopropylacetamide]	1 to 10 µM
CC(C)(C)OC(=O)N[C@H]1C[C@@H](N(CC(=O)NCc2cccc(Cl)c2F)C(=O)Cn2nc(C(N)=O)c3ccccc32)C1 [152b, tert-butyl ((cis)-3-(2-(3-carbamoyl-1H-indazol-1-yl)-N-(2-((3-chloro-2-fluorobenzyl)amino)-2-oxoethyl)acetamido)cyclobutyl)carbamate]	< 1 µM
NC(=O)c1nn(CC(=O)N(CC(=O)NCc2cccc(Cl)c2F)[C@H]2C[C@H](O)C2)c2ccccc12 [110b, 1-(2-((2-((3-chloro-2-fluorobenzyl)amino)-2-oxoethyl)((trans)-3-hydroxycyclobutyl)amino)-2-oxoethyl)-1H-indazole-3-carboxamide]	< 1 µM
CC(C)(C)CC(=O)Nc1ccc2c(C(N)=O)nn(CC(=O)N(CC(=O)NCc3cccc(Cl)c3F)C3CC3)c2c1 [322b, 1-(2-((2-((3-chloro-2-fluorobenzyl)amino)-2-oxoethyl)(cyclopropyl)amino)-2-oxoethyl)-6-(3,3-dimethylbutanamido)-1H-indazole-3-carboxamide]	< 1 µM
CC(C)N(CC(=O)NCc1cccc(Cl)c1F)C(=O)Cn1cc(C#N)c2c(N)ncnc21 [60a, 2-(4-amino-5-cyano-7H-pyrrolo[2,3-d]pyrimidin-7-yl)-N-(2-((3-chloro-2-fluorobenzyl)amino)-2-oxoethyl)-N-isopropylacetamide]	1 to 10 µM
Nc1ncnc2c1cnn2CC(=O)N(CC(=O)NCc1cccc(Cl)c1F)C1CC1 [68a, 2-(4-amino-1H-pyrazolo[3,4-d]pyrimidin-1-yl)-N-(2-((3-chloro-2-fluorobenzyl)amino)-2-oxoethyl)-N-cyclopropylacetamide]	1 to 10 µM
NC(=O)c1nn(CC(=O)N(CC(=O)NCc2cccc(Cl)c2F)[C@H]2C[C@@H](O)C2)c2ccccc12 [104b, 1-(2-((2-((3-chloro-2-fluorobenzyl)amino)-2-oxoethyl)((cis)-3-hydroxycyclobutyl)amino)-2-oxoethyl)-1H-indazole-3-carboxamide]	< 1 µM
CC(=O)c1nn(CC(=O)N(CC(=O)NCc2cccc(Cl)c2F)[C@H]2C[C@H](O)C2)c2ccc(Nc3cncnc3)cc12 [182a, 2-(3-acetyl-5-(pyrimidin-5-ylamino)-1H-indazol-1-yl)-N-(2-((3-chloro-2-fluorobenzyl)amino)-2-oxoethyl)-N-(trans-3-hydroxycyclobutyl)acetamide]	< 1 µM
CN(C)CC[C@H](N)c1cccc(Cl)c1F [358f, (S)-1-(3-chloro-2-fluorophenyl)-N3,N3-dimethylpropane-1,3-diamine]	1 to 10 µM
